Source: patent US11390613B2, “Azole analogues and methods of use thereof” (UNIVERSITY OF CONNECTICUT, priority 2017, dated 2022)

tested on: Gli1 mRNA levels in the murine BCC cell line ASZ-001 (Hh pathway); experiment: Hh pathway inhibition: endogenous Gli1 mRNA (qRT-PCR) in ASZ-001 cells; format: cell-based; details: Mus musculus, ASZ001, 48 h
Method: Initial Hh inhibition studies.
General Information for Cell Culture Studies Protocols for general cell culture, qPCR, and Hh inhibition ASZ cells are as previously described.
General Information for Cell Culture Studies. Protocols for general cell culture, qPCR, and Hh inhibition ASZ cells are as previously described.
Gene Expression Assay Protocol (ASZ-001): Cells are seeded (10,000 cells per well; 100 μL total volume per well) in a 96-well tissue culture plate. After 24 h of incubation (37° C., 5% CO2), growth media was removed and replaced with low FBS media. Cells were incubated for an additional 24 h. After this time, DMSO (vehicle control) and liposomes (Aqueous Solution) were added to the wells. […]
Rt-PCR Protocol: Following treatment and incubation periods, both RNA extraction and cDNA synthesis were performed using a TaqMan Cells-to-CT (fast) kit. cDNA synthesis utilized a BioRad MyCycler and was programmed according to the manufacturer's instructions. Quantitative RT-PCR was performed on an ABI 7500 system and made use of the following TaqMan Gene Expression Probes: mouse ActB (Mm00607939_s1) and mouse Gli1 (Mm00494654_m1). Relative gene expression levels were computed via ΔΔCT method using GraphPad Prism. Corresponding IC50 values were calculated as mean±SEM for at least three separate experiments performed in triplicate.

Row | Structure (SMILES) | IC50
1 | C[C@]1(c2ccc(Cl)cc2Cl)OC[C@@H](COc2ccc(N3CCN(c4ccc([N+](=O)[O-])cc4)CC3)cc2)O1 [Compound 7, 1-(4-(((2S,4R)-2-(2,4-dichlorophenyl)-2-methyl-1,3-dioxolan-4-yl)methoxy)phenyl)-4-(4-nitrophenyl)piperazine] | 0.26 ± 0.04 µM
2 | C[C@]1(c2ccc(Cl)cc2Cl)OC[C@@H](COc2ccc(N3CCN(c4ccc(NC(=O)c5ccccn5)cc4)CC3)cc2)O1 [Compound 17, N-(4-(4-(4-(((2S,4R)-2-(2,4-dichlorophenyl)-2-methyl-1,3-dioxolan-4-yl)methoxy)phenyl)piperazin-1-yl)phenyl)picolinamide] | 3.9 ± 0.3 µM

Continued, values first:

Row | IC50 | Structure (SMILES)
3 | 0.31 ± 0.04 µM | C[C@@]1(c2ccc(Cl)cc2Cl)OC[C@@H](COc2ccc(N3CCN(c4ccc([N+](=O)[O-])cc4)CC3)cc2)O1 [Compound 6, 1-(4-(((2R,4R)-2-(2,4-dichlorophenyl)-2-methyl-1,3-dioxolan-4-yl)methoxy)phenyl)-4-(4-nitrophenyl)piperazine]
4 | 0.39 ± 0.09 µM | C[C@]1(c2ccc(Cl)cc2Cl)OC[C@@H](COc2ccc(N3CCN(c4ccc(N)cc4)CC3)cc2)O1 [Compound 9, 4-(4-(4-(((2S,4R)-2-(2,4-dichlorophenyl)-2-methyl-1,3-dioxolan-4-yl)methoxy)phenyl)piperazin-1-yl)aniline]

same assay, conditions: Table 6; ASZ cells, Gli1 mRNA, 48 h incubation; read-out: IC50

Row | Structure (SMILES) | IC50
5 | C[C@@]1(c2ccc(Cl)cc2Cl)OC[C@@H](COc2ccc(N3CCN(c4ccc(NC(=O)c5ccccc5)cc4)CC3)cc2)O1 [Compound 10, N-(4-(4-(4-(((2R,4R)-2-(2,4-dichlorophenyl)-2-methyl-1,3-dioxolan-4-yl)methoxy)phenyl)piperazin-1-yl)phenyl)benzamide] | > 10 µM
6 | C[C@]1(c2ccc(Cl)cc2Cl)OC[C@@H](COc2ccc(N3CCN(c4ccc(NC(=O)c5ccccc5)cc4)CC3)cc2)O1 [Compound 15, N-(4-(4-(4-(((2S,4R)-2-(2,4-dichlorophenyl)-2-methyl-1,3-dioxolan-4-yl)methoxy)phenyl)piperazin-1-yl)phenyl)benzamide] | > 10 µM
7 | C[C@]1(c2ccc(Cl)cc2Cl)OC[C@@H](COc2ccc(N3CCN(c4ccc(NC(=O)c5ccncc5)cc4)CC3)cc2)O1 [Compound 19, N-(4-(4-(4-(((2S,4R)-2-(2,4-dichlorophenyl)-2-methyl-1,3-dioxolan-4-yl)methoxy)phenyl)piperazin-1-yl)phenyl)isonicotinamide] | > 10 µM

Results, then the compound that gave them:

Row | IC50 | Structure (SMILES)
8 | > 10 µM | C[C@@]1(c2ccc(Cl)cc2Cl)OC[C@@H](COc2ccc(N3CCN(c4ccc(NC(=O)c5ccc6ccccc6c5)cc4)CC3)cc2)O1 [Compound 11, N-(4-(4-(4-(((2R,4R)-2-(2,4-dichlorophenyl)-2-methyl-1,3-dioxolan-4-yl)methoxy)phenyl)piperazin-1-yl)phenyl)-2-naphthamide]
9 | > 10 µM | C[C@@]1(c2ccc(Cl)cc2Cl)OC[C@@H](COc2ccc(N3CCN(c4ccc(NC(=O)c5ccccn5)cc4)CC3)cc2)O1 [Compound 12, N-(4-(4-(4-(((2R,4R)-2-(2,4-dichlorophenyl)-2-methyl-1,3-dioxolan-4-yl)methoxy)phenyl)piperazin-1-yl)phenyl)picolinamide]
10 | > 10 µM | C[C@@]1(c2ccc(Cl)cc2Cl)OC[C@@H](COc2ccc(N3CCN(c4ccc(NC(=O)c5ccncc5)cc4)CC3)cc2)O1 [Compound 14, N-(4-(4-(4-(((2R,4R)-2-(2,4-dichlorophenyl)-2-methyl-1,3-dioxolan-4-yl)methoxy)phenyl)piperazin-1-yl)phenyl)isonicotinamide]
11 | > 10 µM | C[C@]1(c2ccc(Cl)cc2Cl)OC[C@@H](COc2ccc(N3CCN(c4ccc(NC(=O)c5ccc6ccccc6c5)cc4)CC3)cc2)O1 [Compound 16, N-(4-(4-(4-(((2S,4R)-2-(2,4-dichlorophenyl)-2-methyl-1,3-dioxolan-4-yl)methoxy)phenyl)piperazin-1-yl)phenyl)-2-naphthamide]
